Measurements taken from article PMC6104605, “Discovery of new chromen-4-one derivatives as telomerase inhibitors through regulating expression of dyskerin” (Journal of Enzyme Inhibition and Medicinal Chemistry, 2018).

Experiments:
telomerase = target: T1, telomerase (Homo sapiens, UniProt O14746); test: Telomerase activity assay (TRAP-PCR-ELISA); assay type: biochemical; conditions: SGC-7901 cells extracts, 24-h treatment, mean ± SD
T1 construct: endogenous in cells; host or cells: SGC-7901
Procedure: Inhibit of telomerase activity was tested using the TRAP-PCR-ELISA assay. In detail, the SGC-7901 cells were firstly maintained in DMEM medium (GIBCO, New York) supplemented with 10% fetal bovineserum (GIBCO, NewYork), streptomycin (0.1 mg/mL) and penicillin (100 IU/mL) at 37 °C in a humidified atmosphere containing 5% CO2. After trypsinisation, 5 × 10^4 cultured cells in logarithmic growth were seeded into T25 flasks (Corning, New York) and cultured to allow to adherence. The cells were then incubated with Staurosporine (Santa Cruz, Santa Cruz) and the drugs with a series of concentration as 60, 20, 6.67, 2.22, 0.74, 0.25 and 0.082 l g/mL, respectively. After 24-h treatment, the cells were harvested by cell scraper orderly following by washed once with PBS. The cells were lysed in 150 µL RIPA cell lysis buffer (Santa Cruz, Santa Cruz) and incubated on ice for 30 min. The cellular supernatants were obtained via centrifugation at 12,000 g for 20 min at 4 °C and stored at −80 °C. The TRAP-PCR-ELISA assay was performed using a telomerase detection kit (Roche, Basel, Switzerland) according to the manufacturer’s protocol. In brief, 2 µL of cell extracts were mixed with 48 µL TRAP reaction mixtures. PCR was then initiated at 94 °C, 120 s for predenaturation and performed using 35 cycles each consisting of 94 °C for 30 s, 50 °C for 30 s, 72 °C for 90 s. Then 20 µL of PCR products were hybridised to a digoxigenin (DIG)-labeled telomeric repeat specific detection probe. And the PCR products were immobilised via the biotin-labeled primer to a streptavidin-coated microtiter plate subsequently. The immobilised DNA fragment were detected with a peroxidase-conjugated anti-DIG antibody and visualised following addition of the stop regent. The microtitre plate was assessed on TECAN Infinite M200 microplate reader (Mannedorf, Switzerland) at a wavelength of 490 nm, and the final value were presented as mean ± SD.

[1] = test system: DEN-induced rat hepatic tumor; test: In vivo tumor model, DEN-induced rat hepatic tumor (HE histopathology); conditions: DEN-induced SD rats, 50 mg·kg−1 orally once a day, 10 weeks
Procedure: SD rats, male, 120 ∼ 160 g. 120 rats were divided randomly into two groups containing 12 normal rats and 108 DEN model rats. Rats were gavaged daily with DEN 8 mg/kg, once a day, 6 days a week. Normal saline rats were given the same volume, molding to 10 weeks. 60 model rats were randomly divided into five groups, 12 rats in each group, continued to give DEN; normal rats were given normal saline, molding to 16 week, stopped giving DEN. Compound 5i treatment group from the 10th week, 50 mg·kg^−1 was orally given, once a day, for 10 consecutive weeks. Similar parts of left lobe of liver were taken and fixed by 4% polyformaldehyde solution, embedded in paraffin, sliced and HE stained, for histopathological observation.

NOP10 = test: Western blot, NOP10; assay type: cell-based, human; conditions: SGC-7901, 1, 2 and 4 μM, 48 h
Procedure: (§1) An equivalent volume of 5 × SDS-sample buffer was added to cell lysates and boiled for 10 min. The supernatants were subjected to electrophoresis on SDS-PAGE gels and transferred to PVDF membrane by using a Bio-Rad apparatus. Membranes were blocked for 3 h at room temperature in TBST containing 5% non-fat dried milk and probed overnight at 4 °C with antibodies. CyclinD1 (abcam, ab134175, 1:10000), CDC25A (abcam, ab156574, 1:1000), CDC25C (abcam, ab32051, 1:1000), bcl-2 (abcam, ab32124,1:1000), bax (abcam, ab32503, 1:1000), PARP (abcam, ab191217, 1:1000), γH2AX (abcam, ab81299, 1:5000), dyskerin (abcam, ab156877, 1:1000), NHP2 (abcam, ab180498, 1:1000), NOP10 (abcam, ab133726, 1:1000) antibody was performed with rabbit primary antibody. Otherwise, β-actin (ZSGB-BIO, 1:1000) detection was performed with mouse primary antibody which was served as internal controls. Protein bands of β-actin was visualised using peroxidase-labeled goat anti-mouse and others were visualised using peroxidase-labeled goat anti-rabbit secondary antibody (1:5000 dilution, 1 h, room temperature), and the protein expression signals were detected by the BeyoECL Plus (Beyotime).

Bcl-2/Bax = test: Western blot, Bcl-2/Bax; assay type: cell-based, human; conditions: SGC-7901, 1, 2 and 4 μM, 48 h
Procedure: as §1

CDC25A = test: Western blot, CDC25A; assay type: cell-based, human; conditions: SGC-7901, 1, 2 and 4 μM, 48 h
Procedure: as §1

SGC-7901 cells = test: Annexin V-FITC/PI apoptosis analysis by flow cytometry; assay type: cell-based, human; conditions: 48 h, control 3.06%
Procedure: Apoptosis was detected by flow cytometric analysis of annexin V staining. Annexin V-FITC/PI assay was performed according to previously described. First, adherent SGC-7901 cells were harvested and suspended in the annexin-binding buffer (1 × 10^6 cells/mL). Then, cells were incubated with V-FITC buffer and incubated with annexin V-FITC for 15 min and then stained by PI for 5 min at 4 °C in the dark, immediately analyzed by flow cytometry. The data are presented as biparametric dot plots showing PI red fluorescence versus annexin V-FITC green fluorescence.

human glioma cell U87 = test: MTT anticancer assay, U87; assay type: cell-based; conditions: 48 h exposure, mean ± SD, dash = footnote d 'None'
Procedure: The MTT was purchased from Sigma. Cell Cycle Analysis Kit and Apoptosis Analysis Kit were purchased from Bestbio (China). Mitochondrial membrane potential assay kit with JC-1 was purchased from Beyotime (China). All the materials were used as received without further purification unless noted specifically. The cell culture was maintained on DMEM medium (Hyclone, US) supplemented with 10% fetal bovine serum (Sijiqing, China), 100 U/mL penicillin and 100 µg/mL streptomycin in 25-cm^2 culture flasks at 37 °C humidified atmosphere with 5% CO2. Drugs were dissolved in DMSO and filtered through 0.22-µm pore-size filter units before addition to cell line appropriate media. When tumor cells were grown to log phase, diluting to 5 × 10^4 cells mL^−1 with the complete medium, 100 µL of the obtained cell suspension was added to each well of 96-well culture plates. The subsequent incubation was performed at 37 °C, 5% CO2 atmosphere for 48 h before subjecting to anti-proliferation assessment. After 48-h exposure period, 20 µL of PBS containing 5 mg·mL^−1 of MTT was added to each well. After 4 h, the medium was replaced by 150 µL DMSO to dissolve the purple formazan crystals produced. The absorbance at 492 nm of each well was measured on an ELISA plate reader. The data represented the mean of three experiments in triplicate and were expressed as means ± SD. The IC50 value was defined as the concentration at which 50% of the cells could survive. The following human tumor cell lines were used in the assay: human gastric cancer cells SGC-7901, human liver cancer cell SMMC-7721 and HepG2, human cervical cancer cell Hela and human glioma cell U87.

T1 sequence (O14746 whole entry): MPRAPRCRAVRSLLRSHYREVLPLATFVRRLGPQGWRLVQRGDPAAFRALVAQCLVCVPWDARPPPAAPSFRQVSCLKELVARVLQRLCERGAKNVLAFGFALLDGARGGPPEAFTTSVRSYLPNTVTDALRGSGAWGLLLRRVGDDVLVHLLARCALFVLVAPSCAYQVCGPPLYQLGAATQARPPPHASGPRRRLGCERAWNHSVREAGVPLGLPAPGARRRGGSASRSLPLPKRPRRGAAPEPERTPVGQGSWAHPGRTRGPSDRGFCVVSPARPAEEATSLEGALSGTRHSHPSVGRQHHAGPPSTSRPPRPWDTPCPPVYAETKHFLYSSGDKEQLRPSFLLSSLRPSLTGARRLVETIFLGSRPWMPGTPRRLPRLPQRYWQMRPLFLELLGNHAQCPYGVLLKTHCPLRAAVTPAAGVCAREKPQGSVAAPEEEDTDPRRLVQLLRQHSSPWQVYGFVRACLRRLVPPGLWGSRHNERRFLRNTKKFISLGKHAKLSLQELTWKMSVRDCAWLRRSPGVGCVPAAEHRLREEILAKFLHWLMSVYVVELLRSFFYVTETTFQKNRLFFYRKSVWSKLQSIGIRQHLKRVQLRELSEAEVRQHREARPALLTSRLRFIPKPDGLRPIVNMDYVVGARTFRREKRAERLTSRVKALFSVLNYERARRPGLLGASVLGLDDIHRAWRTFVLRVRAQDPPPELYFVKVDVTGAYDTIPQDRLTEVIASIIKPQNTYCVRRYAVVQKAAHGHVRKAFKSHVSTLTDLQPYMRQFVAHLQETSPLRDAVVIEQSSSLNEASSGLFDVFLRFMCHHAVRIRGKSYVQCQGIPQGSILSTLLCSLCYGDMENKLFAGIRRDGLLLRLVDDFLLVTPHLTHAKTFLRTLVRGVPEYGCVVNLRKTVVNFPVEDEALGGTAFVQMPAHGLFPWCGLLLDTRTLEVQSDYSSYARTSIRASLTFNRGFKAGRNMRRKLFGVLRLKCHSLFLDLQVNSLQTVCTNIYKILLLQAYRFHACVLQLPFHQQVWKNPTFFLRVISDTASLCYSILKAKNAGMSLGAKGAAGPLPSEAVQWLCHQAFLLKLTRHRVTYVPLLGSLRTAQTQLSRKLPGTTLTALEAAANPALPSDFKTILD
T1 sequence (O60832 whole entry partner): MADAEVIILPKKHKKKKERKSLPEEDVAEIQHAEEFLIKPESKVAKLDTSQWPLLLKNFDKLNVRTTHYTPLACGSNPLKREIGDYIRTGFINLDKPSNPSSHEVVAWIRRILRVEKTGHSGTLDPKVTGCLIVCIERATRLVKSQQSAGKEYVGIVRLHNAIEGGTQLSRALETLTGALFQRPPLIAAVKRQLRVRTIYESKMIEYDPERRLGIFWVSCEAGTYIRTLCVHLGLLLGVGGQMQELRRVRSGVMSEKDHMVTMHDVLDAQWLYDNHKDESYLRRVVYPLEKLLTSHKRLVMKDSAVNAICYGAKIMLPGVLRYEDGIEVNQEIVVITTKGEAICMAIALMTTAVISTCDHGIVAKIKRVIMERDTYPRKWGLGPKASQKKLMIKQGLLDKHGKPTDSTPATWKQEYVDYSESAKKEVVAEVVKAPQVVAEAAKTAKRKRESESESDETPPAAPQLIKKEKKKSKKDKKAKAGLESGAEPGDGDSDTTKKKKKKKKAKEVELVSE
T1 sequence (Q9NX24 whole entry partner): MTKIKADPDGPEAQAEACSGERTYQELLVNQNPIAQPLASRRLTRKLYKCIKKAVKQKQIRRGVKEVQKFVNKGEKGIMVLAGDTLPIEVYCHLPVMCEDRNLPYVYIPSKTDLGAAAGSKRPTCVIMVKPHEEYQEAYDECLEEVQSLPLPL
T1 sequence (Q9NPE3 whole entry partner): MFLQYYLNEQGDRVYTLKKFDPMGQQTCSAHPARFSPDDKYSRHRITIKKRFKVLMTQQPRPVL
T1 sequence (Q9NY12 whole entry partner): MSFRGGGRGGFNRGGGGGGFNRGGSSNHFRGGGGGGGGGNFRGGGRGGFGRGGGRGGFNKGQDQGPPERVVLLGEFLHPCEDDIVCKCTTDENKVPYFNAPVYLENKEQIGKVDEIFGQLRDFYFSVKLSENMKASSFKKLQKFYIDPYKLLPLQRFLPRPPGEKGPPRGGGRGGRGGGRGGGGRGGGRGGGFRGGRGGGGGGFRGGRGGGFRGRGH

## COc1cc(OC)c2c(=O)c(OCCCCN3CCN(C(=O)c4ccncc4)CC3)c(-c3cc(OC)c(OC)c(OC)c3)oc2c1 [Compound 5i, 3-(4-(4-isonicotinoylpiperazin-1-yl)butoxy)-5,7-dimethoxy-2-(3,4,5-trimethoxyphenyl)-4H-chromen-4-one]
telomerase
  IC50: 0.89 ± 0.17 µM
[1]
  pathological changes of rat hepatic tumor (HE staining): significantly improve pathological changes
NOP10
  NOP10 protein level (western blot): no significant changes
Bcl-2/Bax
  proportion of Bcl-2/Bax (western blot): reduced
CDC25A
  expression of CDC25A (western blot): significantly decrease
SGC-7901 cells; SGC-7901, 1 µM
  Apoptosis ratio: 12.47%
SGC-7901 cells; SGC-7901, 2 µM
  Apoptosis ratio: 26.3%
SGC-7901 cells; SGC-7901, 4 µM
  Apoptosis ratio: 48.7%
Human glioma cell U87
  IC50: 2.5 ± 0.11 µM
